Experimental data taken from the supplement of paper PMC10307832.

How the values were obtained:
Test in all cases: relative viability (nuclei count vs DMSO), 5 days (fraction); higher = more cells survive
Axitinib + Foretinib = compound: CNC(=O)c1ccccc1Sc1ccc2c(/C=C/c3ccccn3)n[nH]c2c1 [Axitinib] + COc1cc2c(Oc3ccc(NC(=O)C4(C(=O)Nc5ccc(F)cc5)CC4)cc3F)ccnc2cc1OCCCN1CCOCC1 [Foretinib] (partner 0.25 µM)
Procedure, shortened: (§1)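 For relative viability, nuclei counts in treated wells were divided by those in vehicle wells. Lung cancer cell lines had been pin-tool dosed in 1536-well plates the day after seeding and cultured for 5 days, then fixed and stained in one step (final 0.05% Triton X-100, 1% formaldehyde, 1 ug/ml Hoechst) and imaged at 4×. Doses were one drug alone or a fixed anchor-drug dose plus five library-drug doses (not always all listed) in √10 steps, and values are duplicate-plate medians.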

[1] = compound: CC1=CC=C(C=C1)C(=O)CN2C3=C(CCCC3)SC2=N [Pifithrin_alpha] + Nc1nc2[nH]cc(CCc3ccc(C(=O)N[C@@H](CCC(=O)O)C(=O)O)cc3)c2c(=O)[nH]1 [Pemetrexed] (partner 0.2 µM)
Procedure, shortened: as §1

[2] = compound: CC1=CC=C(C=C1)C(=O)CN2C3=C(CCCC3)SC2=N [Pifithrin_alpha] + CCNC(=O)c1noc(-c2cc(C(C)C)c(O)cc2O)c1-c1ccc(CN2CCOCC2)cc1 [Luminespib] (partner 0.01 µM)
Procedure, shortened: as §1

Bemcentinib + OSI-027 = compound: Nc1nc(Nc2ccc3c(c2)CC[C@@H](N2CCCC2)CC3)nn1-c1cc2c(nn1)-c1ccccc1CCC2 [Bemcentinib] + COc1cccc2cc(-c3nc([C@H]4CC[C@H](C(=O)O)CC4)n4ncnc(N)c34)[nH]c12 [OSI-027] (partner 0.5 µM)
Procedure, shortened: as §1

Row | Cell Line | relative viability (Axitinib + Foretinib; first compound 0.005 µM) | relative viability (Axitinib + Foretinib; first compound 0.01581 µM) | relative viability (Axitinib + Foretinib; first compound 0.05 µM) | relative viability (Axitinib + Foretinib; first compound 0.1581 µM) | relative viability (Axitinib + Foretinib; first compound 0.5 µM) | relative viability ([1]; first compound 1 µM) | relative viability ([1]; first compound 3.162 µM) | relative viability ([1]; first compound 10 µM) | relative viability ([1]; first compound 31.62 µM) | relative viability ([1]; first compound 100 µM) | relative viability ([2]; first compound 1 µM) | relative viability ([2]; first compound 3.162 µM) | relative viability ([2]; first compound 10 µM) | relative viability ([2]; first compound 31.62 µM) | relative viability ([2]; first compound 100 µM) | relative viability (Bemcentinib + OSI-027; first compound 0.04 µM) | relative viability (Bemcentinib + OSI-027; first compound 0.1265 µM) | relative viability (Bemcentinib + OSI-027; first compound 0.4 µM) | relative viability (Bemcentinib + OSI-027; first compound 1.265 µM) | relative viability (Bemcentinib + OSI-027; first compound 4 µM)
1 | NCI-H2170 | 1.02 | 0.716 | 1.03 | 0.939 | 1.01 | 0.279 | 0.296 | 0.3 | 0.234 | 0.255 | 0.849 | 0.53 | 0.742 | 0.542 | 0.705 | 0.739 | 0.743 | 0.76 | 0.729 | 0.807
2 | NCI-H441 | 0.989 | 0.93 | 0.872 | 1.13 | 0.95 | 0.297 | 0.248 | 0.235 |  | 0.244 | 0.355 | 0.369 | 0.383 |  | 0.464 | 0.583 | 0.695 | 0.765 | 0.558 | 0.659
3 | NCI-H2087 | 1.09 | 0.97 | 0.937 | 1.15 | 1.21 | 0.608 | 0.665 | 0.593 | 0.597 | 0.74 | 0.169 | 0.172 | 0.153 |  | 0.135 | 0.495 | 0.687 | 0.589 | 0.544 | 0.571
4 | RERF-LC-KJ | 0.916 | 0.892 | 0.887 | 0.86 | 0.854 | 0.437 | 0.445 | 0.507 | 0.452 | 0.396 | 1.3 | 1.25 | 0.959 | 0.512 | 0.44 | 0.594 | 0.552 | 0.571 | 0.58 | 0.567
5 | NCI-H1437 | 1.3 | 1.22 | 1.28 | 1.13 | 1.25 | 0.337 | 0.313 | 0.309 | 0.258 | 0.253 | 1.27 | 1.2 | 1.08 | 0.728 | 0.947 | 0.884 | 0.845 | 0.995 | 0.961 | 0.915
6 | NCI-H1651 | 0.879 | 0.896 | 0.876 | 0.878 | 0.859 | 0.211 | 0.632 | 0.553 | 0.539 | 0.666 | 0.988 | 1.27 | 0.944 | 0.438 | 0.625 | 0.771 | 0.811 | 0.738 | 0.741 | 0.74
7 | PC-14 | 0.92 | 0.819 | 0.989 | 0.861 | 1.03 | 0.143 | 0.121 | 0.133 | 0.0962 | 0.0885 | 0.134 | 0.147 | 0.149 | 0.0887 | 0.0663 | 0.84 | 1.08 | 0.938 | 0.953 | 0.81
8 | NCI-H1666 | 1 | 1.03 | 0.995 | 1.02 | 0.935 | 0.876 | 0.784 | 0.767 | 0.617 | 0.714 | 1.05 | 1.01 | 0.877 | 0.821 | 0.645 | 0.82 | 0.991 | 0.883 | 0.885 | 0.923
9 | NCI-H661 | 1.06 | 1.01 | 1.09 | 1.04 | 1.12 | 0.937 | 0.922 | 0.962 | 0.834 | 0.888 | 0.912 | 0.915 | 0.949 | 0.881 | 0.921 | 0.716 | 0.719 | 0.762 | 0.775 | 0.745
10 | LK-2 | 1.31 | 1.03 | 1.06 | 1.1 | 1.42 | 0.188 | 0.288 | 0.244 |  | 0.327 | 0.219 | 0.179 | 0.171 |  | 0.229 | 0.171 | 0.229 | 0.206 | 0.186 | 0.19
11 | PC-3 [JPC-3] | 1.01 | 0.988 | 1.02 | 1 | 1.23 |  | 1.08 |  | 0.769 | 1.04 | 0.74 | 0.779 | 0.63 | 0.635 | 0.587 | 0.765 | 0.727 | 0.829 | 0.739 | 0.752
12 | LC-2-ad | 0.871 | 0.891 | 0.917 | 0.761 | 0.959 | 0.307 | 0.256 | 0.293 | 0.263 | 0.251 |  | 1.14 | 1.01 |  | 0.601 | 0.892 | 0.906 | 0.761 | 0.964 | 0.927
13 | ChaGo-K-1 | 0.961 | 1 | 0.984 | 0.889 | 1 | 0.251 | 0.252 | 0.27 | 0.263 | 0.249 | 0.563 | 0.528 | 0.477 | 0.38 | 0.581 | 0.515 | 0.794 | 0.626 | 0.614 | 0.531
14 | NCI-H460 | 1.01 | 0.917 | 0.974 | 0.995 | 1.05 | 0.0605 | 0.0587 | 0.0622 | 0.0636 | 0.0898 | 0.0365 | 0.032 | 0.0293 | 0.0251 | 0.0317 | 0.73 | 1.2 | 0.827 | 0.686 | 0.851
15 | NCI-H1395 | 0.97 | 1.03 | 0.982 | 0.939 | 0.918 |  | 0.897 | 0.907 |  | 0.908 | 0.704 | 0.518 | 0.631 | 0.663 | 0.657 | 0.654 | 0.74 | 0.616 | 0.613 | 0.594
